Results as given in patent US4791215A, “Derivatives of glutamic acid and aspartic acid” (priority 1984, dated 1988).

Legend:
[1] = system: CCK-8 induced contraction of rabbit colon; assay: Anti-spastic activity in the colon stimulated by CCK-8; assay type: in vivo
Experimental: A much more specific anti-spastic activity, that is adhering much more to a physiological situation, is illustrated by the following experiment.
The abdomen of an anaesthetised rabbit was cut open to show the transverse colon. A small balloon full of water was inserted at the point established and connected to a pressure transducer by means of a polythene cannula filled with water.
The optimum sensitivity was fixed in relation to the physiological conditions and the products were administered through the femoral vein. Contractions were induced by the administration of 100 ng/kg of CCK.

[2] = Food consumption on daily oral dosing; assay type: in vivo, rats
Experimental: (§1) In order to check the hypothesis that the anti-CCK activity shown by most of the compounds in question may be used to advantage in the treatment of anorexia in man or as an appetite stimulant for farm animals, the following experiment was carried out:
(§2) Male rats having a weight of about 160 g, divided into groups of 10 animals, were used. […]
(§3) The drug, in the form of the sodium salt, was dissolved in water and administered in a volume of 10 ml of H2 O/kg while the control group received an equal volume of the solvent alone.
(§4) The following tables give the average values of the food consumption and the average weight of each group of animals, calculated weekly as well as the Student's t value calculated from the various treated groups and the group of control animals.

[3] = system: CCK-8 induced contraction of guinea pig gall bladder; assay: Anti-CCK activity on gall bladder strips in vitro
Outline: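 CCK-8 at 10 ng/ml drove isometric contraction of guinea pig gall bladder strips held at 32 °C in oxygenated Krebs (O2/CO2 95:5). Antagonism was measured at graded compound concentrations and reported as ED50, in μg/ml, for 50% inhibition of the contraction.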

[4] = Body weight on daily oral dosing; assay type: in vivo, rats
Experimental: as §1, §2, §3, §4

[5] = system: normal pancreatic cells; assay: Trophic action of CCK-8 on normal pancreas; assay type: in vivo, hamsters
Description: The anti-cholecystokinin effect of the most powerful of the compounds which are the subject of the present invention, that is the compound C-7, on the trophic activity of CCK on normal pancreatic cells and on those of a pancreatic adenocarcinoma is to be studied.
Male hamsters were inoculated in the cheek pouches with a suspension of 1×10^5 tumoral cells of a pancreatic adenocarcinoma. Five days after the inoculation the animals were divided at random into 4 groups of 10 animals each, that is, a control group, a group of animals treated with 10 μg/kg of CCK-8 three times a day, a group of animals treated with 5 mg/kg i.p. of compound C-7 three times a day, and a fourth group treated simultaneously with the compound C-7 and CCK-8 in the manner described above.
After 15 days of this treatment, the animals were killed, and the normal pancreas and the inoculated pancreatic tumours in the cheek pouches were collected and weighed. The DNA was extracted and measured according to conventional techniques.
The results thus obtained are given in Table 13, expressed as mean values (±S.E.)

[6] = 10 mcg/kg CCK-8 + compound 5 mg/kg, 3 times a day
[7] = compound 5 mg/kg i.p. 3 times per day

CCCCCN(CCCCC)C(=O)C(CCC(=O)O)NC(=O)c1ccc(Cl)c(Cl)c1 (centres unmarked) [Compound C-7]
effect on CCK-8 stimulated colon ([1]; 3 mg/kg iv, single experiments): -100.0 | ED50 ([1]; Oryctolagus cuniculus, iv, CCK 100 ng/kg): 1.11 mg/kg | increase in food consumption compared with controls ([2]; 0.3 mg/kg daily): about 15% | food consumption ([2]; 0.3 mg/kg os, week 1): 176.4 ± 3.70 g/week | food consumption ([2]; 0.3 mg/kg os, week 2): 216.8 ± 4.71 g/week | food consumption ([2]; 0.3 mg/kg os, week 3): 239.3 ± 4.07 g/week | food consumption ([2]; 1 mg/kg os, week 1): 199.6 ± 3.88 g/week | food consumption ([2]; 1 mg/kg os, week 2): 230.5 ± 3.09 g/week | food consumption ([2]; 1 mg/kg os, week 3): 261.4 ± 4.24 g/week | food consumption ([2]; 3 mg/kg os, week 1): 198.4 ± 3.66 g/week | food consumption ([2]; 3 mg/kg os, week 2): 244.8 ± 3.09 g/week | food consumption ([2]; 3 mg/kg os, week 3): 268.8 ± 4.86 g/week | increase in food consumption compared with controls ([2]; other doses tested (1, 3 mg/kg daily)): about 30% | active concentration relative to that of CCK-8 ([3]; 50% antagonism of CCK-8): about 10 times | ED50 (concentration antagonising 50% of contracting effect of CCK-8) ([3]; CCK-8 10 ng/ml): 0.06 µg/mL | body weight ([4]; 0.3 mg/kg os, time 0): 162.1 ± 2.48 g | body weight ([4]; 0.3 mg/kg os, week 1): 201.3 ± 2.7 g | body weight ([4]; 0.3 mg/kg os, week 2): 254.5 ± 2.66 g | body weight ([4]; 0.3 mg/kg os, week 3): 315.2 ± 2.72 g | body weight ([4]; 1 mg/kg os, time 0): 166.0 ± 1.56 g | body weight ([4]; 1 mg/kg os, week 1): 214.7 ± 1.93 g | body weight ([4]; 1 mg/kg os, week 2): 267.5 ± 2.6 g | body weight ([4]; 1 mg/kg os, week 3): 319.8 ± 2.49 g | body weight ([4]; 3 mg/kg os, time 0): 166.6 ± 1.73 g | body weight ([4]; 3 mg/kg os, week 1): 227.9 ± 1.65 g | body weight ([4]; 3 mg/kg os, week 2): 290.9 ± 2.6 g | body weight ([4]; 3 mg/kg os, week 3): 349.5 ± 2.82 g | weight increase versus control animals ([4]; 0.3, 1 and 3 mg/kg os): significantly greater weight increase than the control animals | Pancreas weight [5, 6]: 374 ± 25.4 mg | Pancreatic DNA [5, 6]: 1.0 ± 0.08 mg | Pancreas weight [5, 7]: 336 ± 22.6 mg | Pancreatic DNA [5, 7]: 0.93 ± 0.09 mg
